According to ChEMBL document CHEMBL1122786, “Synthesis and antifolate properties of 10-alkyl-8,10-dideazaminopterins” (J Med Chem, 1984):

Assays:
Mus musculus [1] = test: Compound was evaluated for antitumor activity against L1210 leukemia in mice and LD10 was determined 24 hour after subcutaneous administration in 10 E 6 cells implanted intraperitoneally.; type: ADME, organism-based; settings: in vivo, sc
Mus musculus [2] = organism: Mus musculus; test: Compound was evaluated for antitumor activity against L1210 leukemia in mice and percent increase in life span was determined.; type: functional
Mus musculus [3] = organism: Mus musculus; test: Compound was evaluated for antitumor activity against L1210 leukemia in mice and median survival time was determined at ten mice per run.; type: functional
Mus musculus [4] = organism: Mus musculus; test: Compound was evaluated for antitumor activity against L1210 leukemia in mice and median survival time was determined at ten animals per run.; type: functional

Compound	LD10 (Mus musculus [1])	ILS (Mus musculus [2])	MST (Mus musculus [3])	MST (Mus musculus [4])
Nc1nc(N)c2nc(CCc3ccc(C(=O)NC(CCC(=O)O)C(=O)O)cc3)ccc2n1 (stereo not drawn)	0.75 mg/kg	189%	–	–
CC(Cc1ccc2nc(N)nc(N)c2n1)c1ccc(C(=O)NC(CCC(=O)O)C(=O)O)cc1 (stereo not drawn)	0.6 mg/kg	203%	21.5 days	–
CCC(Cc1ccc2nc(N)nc(N)c2n1)c1ccc(C(=O)NC(CCC(=O)O)C(=O)O)cc1 (stereo not drawn)	1.5 mg/kg	235%	–	23.8 days
CN(Cc1cnc2nc(N)nc(N)c2n1)c1ccc(C(=O)N[C@@H](CCC(=O)O)C(=O)O)cc1 [METHOTREXATE]	15 mg/kg	187%	–	20.4 days
CCCC(Cc1ccc2nc(N)nc(N)c2n1)c1ccc(C(=O)NC(CCC(=O)O)C(=O)O)cc1 (stereo not drawn)	6 mg/kg	176%	–	–
